Article PMC12056667 (Chemical Science, 2025)
Read-outs that look alike come from different tables or passages of the source.

Experiments:
[1] = tested on: Acinetobacter baumannii NT5-1 – tet(X5); assay: microbe, parasite or virus in culture; format: cell-based; conditions: for MIC: Acinetobacter baumannii, read-out: Tet(X) Inhibitor MIC; for Combination (Antibiotic/Inhibitor) MICs: inhibitor: inhibitor in combination with tigecycline; for Combination (Antibiotic/Inhibitor) MICs: inhibitor / Combination (Antibiotic/Inhibitor) MICs: antibiotic: lowest FICI; for Combination (Antibiotic/Inhibitor) MICs: antibiotic: tigecycline in combination with the inhibitor; for FICI / Outcome: with tigecycline
Protocol: (§1) MIC tests and checkerboard assays were performed in U-bottom, 96-well microtiter plates using a modified broth microdilution protocol following CLSI guidelines. Cation-adjusted Mueller-Hinton Broth (CAMHB) was prepared fresh on the day of testing.[74] […] Bacterial colonies were selected from an overnight culture on MHA plates (supplemented with 0.2%w/vL-arabinose for E. coli TOP10 containing pBAD-TOPO-Tet(X4)) and were suspended in 0.9% saline solution to achieve a 0.5 McFarland standard. A 100 μL aliquot of this suspension was then diluted into 9.9 mL of CAMHB to yield approximately 1.5 × 10^6 cfu mL^−1. 50 μL of the suspension was then added to each well of a microtiter plates. Plates were incubated at 37 °C for 18 h. At least 2 replicates were conducted for each combination. E. coli TOP10 + pBAD-TOPO-Tet(X4) cells were grown in the absence and presence of 0.2%w/vL-arabinose. Analysis of the MIC and checkerboard results were carried out by visual inspection of growth, with and without resazurin dye, an oxidation–reduction indicator.[75] As a measure of synergy, fractional inhibitory concentration index (FICI) was calculated as FICA + FICB, where FICA and FICB are the MICcombination/MICalone for each agent, respectively.[76] Results were interpreted as follows: synergistic (<0.5), indifferent (1.0–4.0) or antagonistic (>4.0).[64] In cases where the MIC exceeded or was below the measured range, the borderline value was taken to calculate the FIC index.

[2] = tested on: Escherichia coli T-24a – tet(X4); assay: microbe, parasite or virus in culture; format: cell-based; conditions: for MIC: Escherichia coli, read-out: Tet(X) Inhibitor MIC, alone, E. coli T-24a; for Combination (Antibiotic/Inhibitor) MICs: inhibitor: inhibitor in combination with tigecycline; for Combination (Antibiotic/Inhibitor) MICs: inhibitor / Combination (Antibiotic/Inhibitor) MICs: antibiotic: lowest FICI; for Combination (Antibiotic/Inhibitor) MICs: antibiotic: tigecycline in combination with the inhibitor; for FICI / Outcome: with tigecycline
Protocol: as §1

[3] = tested on: Proteus penneri NT6-2 – tet(X6); assay: microbe, parasite or virus in culture; format: cell-based; conditions: for MIC: Proteus penneri, read-out: Tet(X) Inhibitor MIC; for Combination (Antibiotic/Inhibitor) MICs: inhibitor: inhibitor in combination with tigecycline; for Combination (Antibiotic/Inhibitor) MICs: inhibitor / Combination (Antibiotic/Inhibitor) MICs: antibiotic: lowest FICI; for Combination (Antibiotic/Inhibitor) MICs: antibiotic: tigecycline in combination with the inhibitor; for FICI / Outcome: with tigecycline
Protocol: as §1

[4] = molecular target: Tet(X4) (Escherichia coli, UniProt A0A3T0V9Y5); assay: biochemical; conditions: 20 μM tigecycline, 50 nM Tet(X4), 100 μM NADPH, 5 mM MgCl2, 1 μM FAD, 100 mM TAPS pH 8.5; read-out: IC50, UPLC assay
How it was run: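 Endpoint turnover assay: 100 nM Tet(X4) with […] and 10 mM MgCl2 in 100 mM TAPS pH 8.5, preincubated with inhibitor 15 min at 30 °C, then 40 μM tigecycline plus 200 μM NADPH added […] for 20 min at 30 °C.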

[5] = tested on: E. coli TOP10 containing plasmid pBAD-TOPO-Tet(X4); assay: Broth microdilution MIC and checkerboard assay; format: cell-based, Escherichia coli; conditions: for MIC: Escherichia coli; for Combination (antibiotic/inhibitor) MIC: inhibitor: inhibitor in combination with tigecycline; for Combination (antibiotic/inhibitor) MIC: inhibitor / Combination (antibiotic/inhibitor) MIC: antibiotic: lowest FICI; for Combination (antibiotic/inhibitor) MIC: antibiotic: tigecycline in combination with the inhibitor; for FICI / Outcome: with tigecycline
How it was run: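 E. coli TOP10 with pBAD-TOPO-Tet(X4), […], tested by CLSI broth microdilution in CAMHB, ~1.5 × 10^6 cfu mL^−1 inoculum, 37 °C, 18 h. Checkerboard of seven 2-fold inhibitor dilutions × ten dilutions; growth read visually ± resazurin; FICI = FICA + FICB.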

[6] = read-out: Tet(X) Inhibitor MIC, alone, without L-arabinose induction
[7] = read-out: Tet(X) inhibitor MIC, alone, induced with 0.2%w/v L-arabinose

Row | Compound | MIC [1] [µg/mL] | Combination (Antibiotic/Inhibitor) MICs: inhibitor [1] [µg/mL] | Combination (Antibiotic/Inhibitor) MICs: antibiotic [1] [µg/mL] | FICI [1] | Outcome [1] | MIC [2] [µg/mL] | Combination (Antibiotic/Inhibitor) MICs: inhibitor [2] [µg/mL] | Combination (Antibiotic/Inhibitor) MICs: antibiotic [2] [µg/mL] | FICI [2] | Outcome [2] | MIC [3] [µg/mL] | Combination (Antibiotic/Inhibitor) MICs: inhibitor [3] [µg/mL] | Combination (Antibiotic/Inhibitor) MICs: antibiotic [3] [µg/mL] | FICI [3] | Outcome [3] | IC50 [4] [µM] | MIC [5, 6] [µg/mL] | MIC [5, 7] [µg/mL] | Combination (antibiotic/inhibitor) MIC: inhibitor ([5]; 0.2%w/v L-arabinose) [µg/mL] | Combination (antibiotic/inhibitor) MIC: inhibitor ([5]; without L-arabinose) [µg/mL] | also measured
1 | Cc1c2c(c(O)c3c(O)cccc13)C(=O)[C@]1(O)C(=O)C(C(N)=O)=C(O)[C@@H](N(C)C)[C@@H]1C2 [Anhydrotetracycline] | 16 | 4 | 2 | 0.5 | indifferent (indifferent (0.5-4.0)) | 64 | 32 | 4 | 0.8 | indifferent (indifferent (0.5-4.0)) | 4 | 1 | 4 | 0.8 | indifferent (indifferent (0.5-4.0)) | 2.6 ± 0.3 | 8 | 8 | 2 | 8 | Combination (antibiotic/inhibitor) MIC: antibiotic ([5]; 0.2%w/v L-arabinose): 0.5 µg/mL; Combination (antibiotic/inhibitor) MIC: antibiotic ([5]; without L-arabinose): 0.25 µg/mL; FICI ([5]; 0.2%w/v L-arabinose): 0.4; Outcome ([5]; 0.2%w/v L-arabinose): Synergy (synergy (≤0.5)); FICI ([5]; without L-arabinose): 2; Outcome ([5]; without L-arabinose): indifferent (indifferent (0.5-4.0))
2 | O=C(c1ccc(OCCN2CCCCC2)cc1)c1c(-c2ccc(O)cc2)sc2cc(O)ccc12 [Raloxifene] | > 128 | 128 | 2 | 1.3 | indifferent (indifferent (0.5-4.0)) | 256 | 128 | 8 | 1 | indifferent (indifferent (0.5-4.0)) | > 128 | > 128 | 8 | 2 | indifferent (indifferent (0.5-4.0)) | 8.3 ± 2.1 | > 128 | > 128 | 128 | > 128 | Combination (antibiotic/inhibitor) MIC: antibiotic ([5]; 0.2%w/v L-arabinose): 0.5 µg/mL; Combination (antibiotic/inhibitor) MIC: antibiotic ([5]; without L-arabinose): 0.25 µg/mL; FICI ([5]; 0.2%w/v L-arabinose): 1.1; Outcome ([5]; 0.2%w/v L-arabinose): Indifferent (indifferent (0.5–4.0)); FICI ([5]; without L-arabinose): 2; Outcome ([5]; without L-arabinose): indifferent (indifferent (0.5-4.0))
